Source: PubChem BioAssay (NCI)
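Step 1: Grow cells in 96-well plates. Step 2: Expose to compound for 48 hours at 5 concentrations. Step 3: Interpolate endpoints linearly; if unreached, use highest concentration. GI50 = concentration required for 50% inhibition of growth. TGI marks complete inhibition of growth.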

How the values were obtained:
Test in all cases: DTP human tumour cell line panel, 48 h
T-47D breast = tested on: T-47D breast
M14 melanoma = tested on: M14 melanoma
CAKI-1 renal = tested on: CAKI-1 renal
OVCAR-3 ovarian = tested on: OVCAR-3 ovarian
HL-60(TB) leukemia = tested on: HL-60(TB) leukemia
SNB-75 CNS = tested on: SNB-75 CNS
NCI-H23 lung = tested on: NCI-H23 lung
UACC-62 melanoma = tested on: UACC-62 melanoma
UO-31 renal = tested on: UO-31 renal
MDA-MB-231 breast = tested on: MDA-MB-231 breast
OVCAR-5 ovarian = tested on: OVCAR-5 ovarian
HCT-15 colon = tested on: HCT-15 colon
RPMI-8226 leukemia = tested on: RPMI-8226 leukemia
SK-MEL-2 melanoma = tested on: SK-MEL-2 melanoma
NCI/ADR-RES ovarian = tested on: NCI/ADR-RES ovarian
HOP-62 NSCLC = tested on: HOP-62 NSCLC
UACC-257 melanoma = tested on: UACC-257 melanoma
BT-549 breast = tested on: BT-549 breast
LOX IMVI melanoma = tested on: LOX IMVI melanoma
SR leukemia = tested on: SR leukemia
OVCAR-4 ovarian = tested on: OVCAR-4 ovarian
SF-539 CNS = tested on: SF-539 CNS
A498 renal = tested on: A498 renal
786-0 renal = tested on: 786-0 renal
SN12C renal = tested on: SN12C renal
RXF 393 renal = tested on: RXF 393 renal
HCC-2998 colon = tested on: HCC-2998 colon
OVCAR-8 ovarian = tested on: OVCAR-8 ovarian
DU-145 prostate = tested on: DU-145 prostate
SNB-19 CNS = tested on: SNB-19 CNS
U251 CNS = tested on: U251 CNS
SK-MEL-5 melanoma = tested on: SK-MEL-5 melanoma
IGROV1 ovarian = tested on: IGROV1 ovarian
KM12 colon = tested on: KM12 colon
TK-10 renal = tested on: TK-10 renal
MCF7 breast = tested on: MCF7 breast
HCT-116 colon = tested on: HCT-116 colon
K-562 leukemia = tested on: K-562 leukemia
SK-OV-3 ovarian = tested on: SK-OV-3 ovarian
SF-268 CNS = tested on: SF-268 CNS
HOP-92 NSCLC = tested on: HOP-92 NSCLC
ACHN renal = tested on: ACHN renal
SF-295 CNS = tested on: SF-295 CNS
COLO 205 colon = tested on: COLO 205 colon
NCI-H522 lung = tested on: NCI-H522 lung
MALME-3M melanoma = tested on: MALME-3M melanoma
HS 578T breast = tested on: HS 578T breast
MDA-MB-435 = tested on: MDA-MB-435
MOLT-4 leukemia = tested on: MOLT-4 leukemia
EKVX NSCLC = tested on: EKVX NSCLC
A549 NSCLC = tested on: A549 NSCLC
HT29 colon = tested on: HT29 colon
CCRF-CEM leukemia = tested on: CCRF-CEM leukemia
SK-MEL-28 melanoma = tested on: SK-MEL-28 melanoma
SW-620 colon = tested on: SW-620 colon
NCI-H460 lung = tested on: NCI-H460 lung
NCI-H226 lung = tested on: NCI-H226 lung
PC-3 prostate = tested on: PC-3 prostate

For O=C(NNc1nc2cc(F)ccc2n2cccc12)c1ccncn1, the GI50 (T-47D breast) was 0.301 µM, the TGI (T-47D breast) was over 18.3 µM and the GI50 (M14 melanoma) was 0.255 µM. The TGI (M14 melanoma) was over 11 µM, the GI50 (CAKI-1 renal) was 0.295 µM and the TGI (CAKI-1 renal) was over 30 µM. The GI50 (OVCAR-3 ovarian) was 0.191 µM, the TGI (OVCAR-3 ovarian) was over 7.02 µM and the GI50 (HL-60(TB) leukemia) was 0.293 µM. The GI50 (SNB-75 CNS) was 0.316 µM, the TGI (SNB-75 CNS) was over 25.8 µM and the GI50 (NCI-H23 lung) was 0.437 µM. It also gave a TGI (NCI-H23 lung) of over 30 µM, a GI50 (UACC-62 melanoma) of 0.255 µM and a TGI (UACC-62 melanoma) of 2.49 µM. The GI50 (UO-31 renal) was 0.0856 µM, the TGI (UO-31 renal) was 4.18 µM and the GI50 (MDA-MB-231 breast) was 0.766 µM. For the same compound, the TGI (MDA-MB-231 breast) was over 30 µM, the GI50 (OVCAR-5 ovarian) was 1.3 µM and the TGI (OVCAR-5 ovarian) was over 30 µM. It also gave a GI50 (HCT-15 colon) of 0.0704 µM, a TGI (HCT-15 colon) of over 20.2 µM and a GI50 (RPMI-8226 leukemia) of 0.242 µM. For the same compound, the TGI (RPMI-8226 leukemia) was 2.3 µM, the GI50 (SK-MEL-2 melanoma) was 1.13 µM and the TGI (SK-MEL-2 melanoma) was over 17 µM. It also gave a GI50 (NCI/ADR-RES ovarian) of 0.242 µM, a TGI (NCI/ADR-RES ovarian) of 9.35 µM and a GI50 (HOP-62 NSCLC) of 0.0941 µM. For the same compound, the TGI (HOP-62 NSCLC) was 9.12 µM, the GI50 (UACC-257 melanoma) was 0.712 µM and the TGI (UACC-257 melanoma) was 8.25 µM. For the same compound, the GI50 (BT-549 breast) was 0.841 µM, the TGI (BT-549 breast) was over 21.3 µM and the GI50 (LOX IMVI melanoma) was 0.168 µM. It also gave a TGI (LOX IMVI melanoma) of over 9.23 µM, a GI50 (SR leukemia) of 0.0711 µM and a GI50 (OVCAR-4 ovarian) of 0.162 µM. It also gave a TGI (OVCAR-4 ovarian) of over 8.25 µM, a GI50 (SF-539 CNS) of 0.435 µM and a TGI (SF-539 CNS) of over 9.3 µM. For the same compound, the GI50 (A498 renal) was 0.745 µM, the TGI (A498 renal) was 3.73 µM and the GI50 (786-0 renal) was 0.412 µM. For the same compound, the TGI (786-0 renal) was over 15.7 µM, the GI50 (SN12C renal) was 0.564 µM and the TGI (SN12C renal) was over 30 µM. For the same compound, the GI50 (RXF 393 renal) was 0.612 µM, the TGI (RXF 393 renal) was 3.07 µM and the GI50 (HCC-2998 colon) was 0.738 µM. The TGI (HCC-2998 colon) was over 23.1 µM, the GI50 (OVCAR-8 ovarian) was 0.277 µM and the TGI (OVCAR-8 ovarian) was over 28.4 µM. The GI50 (DU-145 prostate) was 0.348 µM, the TGI (DU-145 prostate) was over 23.6 µM and the GI50 (SNB-19 CNS) was 0.396 µM. For the same compound, the TGI (SNB-19 CNS) was over 30 µM, the GI50 (U251 CNS) was 0.163 µM and the TGI (U251 CNS) was over 30 µM. For the same compound, the GI50 (SK-MEL-5 melanoma) was 0.398 µM, the TGI (SK-MEL-5 melanoma) was 5.41 µM and the GI50 (IGROV1 ovarian) was 0.211 µM. The TGI (IGROV1 ovarian) was over 30 µM, the GI50 (KM12 colon) was 0.278 µM and the TGI (KM12 colon) was over 22.5 µM. The GI50 (TK-10 renal) was 0.361 µM, the TGI (TK-10 renal) was over 19 µM and the GI50 (MCF7 breast) was 0.27 µM. The TGI (MCF7 breast) was over 15.3 µM, the GI50 (HCT-116 colon) was 0.153 µM and the TGI (HCT-116 colon) was over 11 µM. The GI50 (K-562 leukemia) was 0.176 µM, the TGI (K-562 leukemia) was over 9.89 µM and the GI50 (SK-OV-3 ovarian) was 0.363 µM. For the same compound, the TGI (SK-OV-3 ovarian) was 14 µM, the GI50 (SF-268 CNS) was 0.234 µM and the TGI (SF-268 CNS) was over 30 µM. It also gave a GI50 (HOP-92 NSCLC) of 0.287 µM, a TGI (HOP-92 NSCLC) of 11.7 µM and a GI50 (ACHN renal) of 0.179 µM. It also gave a TGI (ACHN renal) of over 30 µM, a GI50 (SF-295 CNS) of 0.105 µM and a TGI (SF-295 CNS) of 6.75 µM. The GI50 (COLO 205 colon) was 0.272 µM, the TGI (COLO 205 colon) was over 13.5 µM and the GI50 (NCI-H522 lung) was 0.429 µM. It also gave a TGI (NCI-H522 lung) of over 6.94 µM, a GI50 (MALME-3M melanoma) of 0.91 µM and a TGI (MALME-3M melanoma) of over 21.2 µM. It also gave a GI50 (HS 578T breast) of 1.81 µM, a TGI (HS 578T breast) of over 24.9 µM and a GI50 (MDA-MB-435) of 1.17 µM. It also gave a TGI (MDA-MB-435) of over 30 µM, a GI50 (MOLT-4 leukemia) of 0.109 µM and a GI50 (EKVX NSCLC) of 0.234 µM. The TGI (EKVX NSCLC) was over 16.1 µM, the GI50 (A549 NSCLC) was 0.253 µM and the TGI (A549 NSCLC) was over 30 µM. The GI50 (HT29 colon) was 0.354 µM, the TGI (HT29 colon) was over 13.5 µM and the GI50 (CCRF-CEM leukemia) was 0.0327 µM. It also gave a TGI (CCRF-CEM leukemia) of 0.428 µM, a GI50 (SK-MEL-28 melanoma) of 0.567 µM and a TGI (SK-MEL-28 melanoma) of over 30 µM. It also gave a GI50 (SW-620 colon) of 0.284 µM, a TGI (SW-620 colon) of over 24.1 µM and a GI50 (NCI-H460 lung) of 0.0764 µM. It also gave a TGI (NCI-H460 lung) of over 7.44 µM, a GI50 (NCI-H226 lung) of 0.548 µM and a TGI (NCI-H226 lung) of 10.3 µM. For the same compound, the GI50 (PC-3 prostate) was 0.183 µM and the TGI (PC-3 prostate) was 13.6 µM.
